Source: publication PMC8617627, “Novel DYRK1A Inhibitor Rescues Learning and Memory Deficits in a Mouse Model of Down Syndrome” (Pharmaceuticals, 2021)
Like-named read-outs stand apart in the source and are kept apart here.

How the values were obtained:
Experiment in all cases: Kinase profile (33P ATP filter binding)
Type in all cases: biochemical
Settings in all cases: read-out: Remaining protein kinase activity
[1] = target: IGF-1R (Homo sapiens, UniProt P08069)
[2] = target: T1, LKB1 (Homo sapiens, UniProt Q15831)
T1 sequence (Q15831 1-433): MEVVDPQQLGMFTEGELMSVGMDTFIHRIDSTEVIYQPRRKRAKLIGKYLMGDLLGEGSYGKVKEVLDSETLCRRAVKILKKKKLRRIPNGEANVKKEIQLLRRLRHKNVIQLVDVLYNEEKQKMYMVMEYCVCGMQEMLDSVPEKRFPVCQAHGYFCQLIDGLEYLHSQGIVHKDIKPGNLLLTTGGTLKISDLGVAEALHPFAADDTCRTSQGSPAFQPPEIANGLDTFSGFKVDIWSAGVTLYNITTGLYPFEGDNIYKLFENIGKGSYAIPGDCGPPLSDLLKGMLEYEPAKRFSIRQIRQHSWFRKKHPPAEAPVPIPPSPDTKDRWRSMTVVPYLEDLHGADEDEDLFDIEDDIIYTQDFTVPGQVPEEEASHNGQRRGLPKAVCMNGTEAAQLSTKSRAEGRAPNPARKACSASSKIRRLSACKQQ
T1 sequence (Q7RTN6 1-431 partner): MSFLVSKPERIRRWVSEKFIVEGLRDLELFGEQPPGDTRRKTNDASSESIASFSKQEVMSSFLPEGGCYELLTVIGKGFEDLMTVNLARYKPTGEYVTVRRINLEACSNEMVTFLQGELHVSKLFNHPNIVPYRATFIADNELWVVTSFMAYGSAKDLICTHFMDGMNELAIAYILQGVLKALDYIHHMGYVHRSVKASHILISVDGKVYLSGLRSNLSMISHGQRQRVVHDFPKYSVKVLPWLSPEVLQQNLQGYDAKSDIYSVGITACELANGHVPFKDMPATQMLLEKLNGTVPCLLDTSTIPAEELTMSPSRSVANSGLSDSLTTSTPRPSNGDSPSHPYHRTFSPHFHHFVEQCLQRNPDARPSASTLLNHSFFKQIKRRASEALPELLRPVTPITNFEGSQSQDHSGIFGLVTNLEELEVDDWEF
T1 sequence (Q9Y376 1-341 partner): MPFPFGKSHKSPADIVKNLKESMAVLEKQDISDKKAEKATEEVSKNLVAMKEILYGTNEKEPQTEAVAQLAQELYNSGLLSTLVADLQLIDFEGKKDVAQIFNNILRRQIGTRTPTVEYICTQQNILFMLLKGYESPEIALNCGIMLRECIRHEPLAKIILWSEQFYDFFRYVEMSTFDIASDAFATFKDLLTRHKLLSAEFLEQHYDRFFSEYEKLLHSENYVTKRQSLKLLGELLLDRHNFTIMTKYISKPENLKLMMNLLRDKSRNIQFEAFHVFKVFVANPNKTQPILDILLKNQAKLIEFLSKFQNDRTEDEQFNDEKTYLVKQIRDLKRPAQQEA

[3] = target: MSK1 (Homo sapiens, UniProt O75582)
[4] = target: NEK6 (Homo sapiens, UniProt Q9HC98)
[5] = target: T2, TGFBR1 (Homo sapiens, UniProt P36897)
T2 sequence (P36897 34-503): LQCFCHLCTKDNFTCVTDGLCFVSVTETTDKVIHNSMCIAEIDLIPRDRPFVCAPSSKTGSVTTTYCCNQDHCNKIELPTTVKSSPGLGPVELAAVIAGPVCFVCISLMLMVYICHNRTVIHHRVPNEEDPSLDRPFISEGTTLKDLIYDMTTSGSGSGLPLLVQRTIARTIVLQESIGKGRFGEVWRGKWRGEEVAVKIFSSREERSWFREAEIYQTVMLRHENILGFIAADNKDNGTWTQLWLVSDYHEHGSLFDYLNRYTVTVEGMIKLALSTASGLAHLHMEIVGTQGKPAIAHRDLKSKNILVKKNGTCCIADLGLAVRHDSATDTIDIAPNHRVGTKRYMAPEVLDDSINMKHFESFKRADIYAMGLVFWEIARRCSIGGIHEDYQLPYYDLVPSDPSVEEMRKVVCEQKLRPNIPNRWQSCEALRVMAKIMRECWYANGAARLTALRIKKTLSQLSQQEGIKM

Chain of NEK6 (Q9HC98 whole entry): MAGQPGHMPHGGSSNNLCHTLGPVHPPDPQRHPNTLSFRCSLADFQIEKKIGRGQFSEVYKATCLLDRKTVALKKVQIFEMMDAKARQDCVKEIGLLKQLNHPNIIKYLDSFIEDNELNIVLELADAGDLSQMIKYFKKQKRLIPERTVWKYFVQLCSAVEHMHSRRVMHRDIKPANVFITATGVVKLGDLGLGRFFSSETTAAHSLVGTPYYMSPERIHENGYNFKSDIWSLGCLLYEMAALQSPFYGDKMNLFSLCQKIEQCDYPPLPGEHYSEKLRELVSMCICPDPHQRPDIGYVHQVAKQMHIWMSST
Chain of IGF-1R (P08069 31-1367): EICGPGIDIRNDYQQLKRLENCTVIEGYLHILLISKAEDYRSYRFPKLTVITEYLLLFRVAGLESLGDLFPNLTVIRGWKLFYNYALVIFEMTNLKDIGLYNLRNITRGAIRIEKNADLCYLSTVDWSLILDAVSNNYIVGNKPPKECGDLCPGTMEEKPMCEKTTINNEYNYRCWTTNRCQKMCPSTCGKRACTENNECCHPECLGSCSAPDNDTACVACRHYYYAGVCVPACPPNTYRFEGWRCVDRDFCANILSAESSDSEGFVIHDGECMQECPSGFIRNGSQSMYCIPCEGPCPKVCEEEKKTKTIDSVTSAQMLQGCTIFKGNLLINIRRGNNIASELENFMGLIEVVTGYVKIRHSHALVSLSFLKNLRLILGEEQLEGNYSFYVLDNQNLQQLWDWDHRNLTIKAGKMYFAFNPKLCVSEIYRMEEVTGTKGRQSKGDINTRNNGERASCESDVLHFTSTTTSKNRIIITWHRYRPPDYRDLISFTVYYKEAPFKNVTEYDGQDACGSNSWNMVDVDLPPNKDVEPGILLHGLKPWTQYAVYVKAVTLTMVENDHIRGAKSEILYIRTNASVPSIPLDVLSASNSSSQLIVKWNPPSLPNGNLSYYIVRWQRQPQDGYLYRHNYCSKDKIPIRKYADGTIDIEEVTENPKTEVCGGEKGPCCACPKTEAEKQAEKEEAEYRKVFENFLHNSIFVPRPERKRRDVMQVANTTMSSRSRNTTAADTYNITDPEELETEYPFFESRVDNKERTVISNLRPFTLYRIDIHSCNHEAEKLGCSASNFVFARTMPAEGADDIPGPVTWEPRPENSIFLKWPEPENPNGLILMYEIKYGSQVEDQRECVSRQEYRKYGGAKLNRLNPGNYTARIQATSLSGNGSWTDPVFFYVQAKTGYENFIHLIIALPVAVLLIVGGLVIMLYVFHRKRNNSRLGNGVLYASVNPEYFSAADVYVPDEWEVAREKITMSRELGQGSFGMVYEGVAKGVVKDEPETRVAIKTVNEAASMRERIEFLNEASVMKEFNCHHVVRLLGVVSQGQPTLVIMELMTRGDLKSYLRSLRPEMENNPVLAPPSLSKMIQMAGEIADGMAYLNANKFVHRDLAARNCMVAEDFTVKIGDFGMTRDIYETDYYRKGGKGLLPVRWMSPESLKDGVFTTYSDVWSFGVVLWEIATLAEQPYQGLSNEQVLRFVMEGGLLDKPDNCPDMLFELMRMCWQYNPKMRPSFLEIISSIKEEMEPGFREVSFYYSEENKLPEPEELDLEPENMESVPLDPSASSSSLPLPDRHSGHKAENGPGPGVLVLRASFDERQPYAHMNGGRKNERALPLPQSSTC
Chain of MSK1 (O75582 whole entry): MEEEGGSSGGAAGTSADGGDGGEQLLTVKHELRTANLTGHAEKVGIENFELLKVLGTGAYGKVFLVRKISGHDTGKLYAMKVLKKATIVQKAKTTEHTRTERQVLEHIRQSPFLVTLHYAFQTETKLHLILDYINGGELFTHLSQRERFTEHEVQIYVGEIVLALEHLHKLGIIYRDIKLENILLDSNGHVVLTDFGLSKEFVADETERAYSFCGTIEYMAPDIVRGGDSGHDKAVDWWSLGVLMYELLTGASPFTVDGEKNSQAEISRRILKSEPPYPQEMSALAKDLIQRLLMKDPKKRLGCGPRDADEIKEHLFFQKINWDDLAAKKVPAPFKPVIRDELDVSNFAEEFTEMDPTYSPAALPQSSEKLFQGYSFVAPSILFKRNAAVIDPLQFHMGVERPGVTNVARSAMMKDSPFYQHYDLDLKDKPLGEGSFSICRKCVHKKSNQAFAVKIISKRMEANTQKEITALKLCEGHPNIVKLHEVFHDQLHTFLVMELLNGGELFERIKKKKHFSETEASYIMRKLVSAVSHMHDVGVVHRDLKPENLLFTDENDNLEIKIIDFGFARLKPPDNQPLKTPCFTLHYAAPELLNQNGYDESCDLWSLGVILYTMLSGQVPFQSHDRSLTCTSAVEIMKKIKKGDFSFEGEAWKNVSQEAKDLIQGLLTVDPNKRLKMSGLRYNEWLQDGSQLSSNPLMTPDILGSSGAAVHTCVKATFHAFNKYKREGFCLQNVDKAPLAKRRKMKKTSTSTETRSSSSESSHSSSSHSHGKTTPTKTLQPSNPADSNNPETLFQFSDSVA

COc1ccc2sc(-c3cncc(NC(C)=O)c3)nc2c1 [PST-001, N-(5-(5-Methoxybenzo[d]thiazol-2-yl)pyridin-3-yl)acetamide]
remaining activity at 1 µM [1]: 104% | remaining activity at 100 µM [1]: 104% | remaining activity at 1 µM [2]: 123% | remaining activity at 100 µM [2]: 150% | remaining activity at 1 µM [3]: 104% | remaining activity at 100 µM [3]: 64% | remaining activity at 1 µM [4]: 112% | remaining activity at 100 µM [4]: 113% | remaining activity at 1 µM [5]: 112% | remaining activity at 100 µM [5]: 129%

COc1ccc2sc(-c3cncc(N)c3)nc2c1 [compound 1, 5-(5-Methoxybenzo[d]thiazol-2-yl)pyridin-3-amine]
remaining activity at 1 µM ([1]; IGF-1R, 1 μM): 96% | remaining activity at 100 µM ([1]; IGF-1R, 100 μM): 68% | remaining activity at 1 µM ([2]; LKB1, 1 μM): 109% | remaining activity at 100 µM ([2]; LKB1, 100 μM): 161% | remaining activity at 1 µM ([3]; MSK1, 1 μM): 109% | remaining activity at 100 µM ([3]; MSK1, 100 μM): 60% | remaining activity at 1 µM ([4]; NEK6, 1 μM): 106% | remaining activity at 100 µM ([4]; NEK6, 100 μM): 115% | remaining activity at 1 µM ([5]; TGFBR1, 1 μM): 105% | remaining activity at 100 µM ([5]; TGFBR1, 100 μM): 118%
